Assay results reported in publication PMC10534582, “A Pharmacokinetic Study of Sixteen Major Bioactive Components of Jinshui-Huanxian Granules in Pulmonary Fibrosis Model and Control Rats Using Orbitrap Fusion Mass Spectrometry” (Molecules, 2023).
Like-named read-outs stand apart in the source and are kept apart here. Values belong to the compound of their own block, whether it stands above or below them.

Assays:
[1] = Pharmacokinetics of JHG components in pulmonary fibrosis (PF) model rats after intragastric administration of JHGs (plasma, Orbitrap Fusion MS); format: in vivo, Sprague Dawley (SD) rats; settings: for pharmacokinetic process (versus dosage) / Tmax: PF model rats; for pharmacokinetic process (versus dosage): low, medium, high doses of JHGs; for Tmax: male, Sprague-Dawley, rat, plasma, po, after administration of JHGs, read-out: Tmax of all dosages
Description: (§1) Healthy male Sprague Dawley (SD) rats of SPF grade (240 ± 20 g) were purchased from Sipeifu (Beijing, China) Biotechnology Co., Ltd. (Beijing, China), Certificate of Conformity No.: SCYK (Beijing, China) 2019-0015, Animal Quality Certificate No.: 110324220102348616. They were housed in the Animal Center of Henan University of Traditional Chinese Medicine, which passed the ethical audit, ethics number: DWLL202208003, breeding Co. 24 °C, relative humidity 50 ± 2%. The animals fasted for 12 h before the experiment and drank water freely. All feeding and experimental studies on experimental animals were in accordance with the regulations on the Management of Experimental Animals in Henan Province.
The PF model in rats was replicated by reference to the conclusion tracheal intubation method in the literature. After the rats were anesthetized, bleomycin (BLM) (5 mg/kg) was used as an induction agent and followed the tracheal intubation method. BLM solution was aspirated with a 1 mL syringe and injected into the indwelling syringe. A total of 0.3 mL of air was rapidly pushed into the syringe, the rats were immediately stroked upright so that the BLM solution was evenly distributed in both lungs. BLM was given on day 0 for modeling, then gavage was taken after day 28, with fasting without water for 12 h before sampling. The histopathological examination was performed to verify the construction of the PF model. The rats were anesthetized by the abdominal cavity, then the lung tissues were violently shocked by opening the chest, and the right lower lobe of the lung was taken and fixed in 4% formaldehyde solution, then dehydrated by sucrose gradient, paraffin-embedded, and sectioned. H&E and Masson staining were performed to observe the degree of alveolitis of lung tissue and the degree of pulmonary fibrosis, respectively. The inflammation and fibrosis of lung tissues was observed under the light microscope.
(§2) Twenty-four healthy male SD rats or PF model rats, weighing 240 ± 20 g, fasted for 12 h before the experiment and drank water freely. Both kinds of rats were randomly divided into four groups. Blank group: equal dose of water by intragastric, low dose; administration group: rats were given the equivalent human dose of JHGs by intragastric, i.e., 10.8 g of raw drug/kg/d (5.70 g/kg/d); medium-dose administration group: 2 times the human equivalent dose of JHGs by intragastric, i.e., 21.6 g of raw drug/kg/d (11.41 g/kg/d); high-dose administration group: 4 times the human equivalent dose of JHG, i.e., 43.2 g of raw drug/kg/d (22.81 g/kg/d). Blood was collected from the tail vein before and 0.083, 0.25, 0.5, 0.75, 1, 1.5, 2, 3, 4, 6, 8, 12, 18, and 24 h after dosing, respectively. A total of 0.5 mL was placed in a heparin sodium centrifuge tube. Whole blood was left for 30 min and then centrifuged in a low-temperature freezing centrifuge (4 °C, 3000 r/min) for 15 min. The upper layer of plasma was collected and stored in a refrigerator at −80 °C.
(§3) We added 50 μL of internal standard solution and 800 μL of methanol, shook for 15 min, then centrifuged at 12,000 r/min for 10 min, took the supernatant, dried in a centrifuge concentrator, added 50 μL of the initial mobile phase to the residue, dissolved, centrifuged, then separated the upper layer of the solution used as the test solution. A total of 5 μL test solution was taken into the sample for analysis. For each compound with a certain dosage, the same procedure is repeated six times in parallel. The concentration in plasma was calculated by the internal standard method.
Accucore C18 (100 mm × 2.1 mm, 2.6 μm) column at 25 °C, the mobile phase was methanol (A)-0.1% formic acid aqueous solution (B). The gradient elution program was 0–4 min (65% B-40% B), 4–5 min (40% B-40% B), 5–6 min (40% B-28% B), and 6–7 min (28% B-19% B), 7–7.5 min (19% B-10% B), 7.5–11 min (10% B-0% B), the flow rate was 0.2 mL/min, and the injection volume was 5 μL. […]

[2] = Pharmacokinetics of JHG components in control rats after intragastric administration of JHGs (plasma, Orbitrap Fusion MS); format: in vivo, Sprague Dawley (SD) rats; settings: for AUC(0-inf) / AUC(0-t) / half-life / MRT last / MRT inf / Tmax / Cmax: male, rat, plasma, po; for MRT last: read-out: MRT(0-t); for MRT inf: read-out: MRT(0-∞); for Cmax: intragastric JHGs; for pharmacokinetic process (Cmax and AUCs versus dosage): low, medium, high doses of JHGs
Description: as §1, §2, §3
Accucore C18 (100 mm × 2.1 mm, 2.6 μm) column at 25 °C, the mobile phase was methanol (A)-0.1% formic acid aqueous solution (B). The gradient elution program was 0–4 min (65% B-40% B), 4–5 min (40% B-40% B), 5–6 min (40% B-28% B), and 6–7 min (28% B-19% B), 7–7.5 min (19% B-10% B), 7.5–11 min (10% B-0% B), the flow rate was 0.2 mL/min, and the injection volume was 5 μL.
The ion source was an electrospray ionization source (ESI). Nitrogen acted as a carrier gas. The sheath gas pressure was 35 Arb. The auxiliary gas pressure was 7 Arb. The spray voltage was 3.50 kv(+), 2.50 kv(-). The ion transport tube temperature was regulated at 300 °C. Gasification temperature was 275 °C. The resolution was 50,000. The scanning mode was set as SIM mode. The optimized parameters obtained are in Table 5.
Under the established Orbitrap Fusion MS method, the pharmacokinetics of JHG in rats were studied to investigate the dynamic changes of the active components in rats. The pharmacokinetic parameters of each component in each dosing group were calculated by […] model analysis using Kinetica 5.1 (Innaphase, Waltham, MA, USA) pharmacokinetic analysis software. The pharmacotemporal curves were plotted by the plotting software. SPSS 19.0 (IBM, Armonk, NY, USA) was used to analyze all the parameters. Independent sample tests were performed after natural logarithmic transformation for AUC0–t, Cmax. The nonparametric Mann–Whitney test was applied for Tmax, t½, and MRT0–t. p < 0.05 was considered statistically significant.

[3] = because of poor gastrointestinal absorption; cited from earlier work
[4] = Sprague Dawley, 5.7 g/kg/day, JHGs low dose 5.70 g/kg/d
[5] = Sprague Dawley, 11.41 g/kg/day, JHGs medium dose 11.41 g/kg/d
[6] = Sprague Dawley, 22.81 g/kg/day, JHGs high dose 22.81 g/kg/d
[7] = Sprague-Dawley, after administration of JHGs, read-out: Tmax of all dosages

Structure (SMILES): CC1CCC2N(C1)CC1C3CC4C(CC(=O)C5CC(O)CCC54C)C3CCC1C2(C)O (stereo not shown) [Peiminine]
Tmax, PF model group compared with the control group ([1]; PF model vs control rats): decreased significantly
Clearances ([2]; JHGs high dose 22.81 g/kg/d): 112 ± 30.2 mL/min/kg
Vss ([2]; JHGs high dose 22.81 g/kg/d): 67.52 ± 15.96 L
Clearances ([2]; JHGs low dose 5.70 g/kg/d): 46.2 ± 14 mL/min/kg
Vss ([2]; JHGs low dose 5.70 g/kg/d): 28.03 ± 8.27 L
Clearances ([2]; JHGs medium dose 11.41 g/kg/d): 61 ± 18.7 mL/min/kg
Vss ([2]; JHGs medium dose 11.41 g/kg/d): 40.68 ± 9.67 L
AUC(0-inf) [2, 4]: 31.9 ± 9.55 ng·h/mL
AUC(0-t) [2, 4]: 29.1 ± 8.48 ng·h/mL
half-life [2, 4]: 6.06 ± 0.22 h
MRT last [2, 4]: 8.01 ± 0.09 h
MRT inf [2, 4]: 10.2 ± 0.32 h
Tmax ([2]; Sprague Dawley, 5.7 g/kg/day, JHGs low dose 5.70 g/kg/d, read-out: Tmax): 4.67 ± 1.15 h
Cmax ([2]; Sprague Dawley, 5.7 g/kg/day, low dose 5.70 g/kg/d, n=6 (1st of 3 stacked values)): 2.91 ± 0.9 ng/mL
AUC(0-inf) [2, 5]: 43.9 ± 16.4 ng·h/mL
AUC(0-t) [2, 5]: 38.6 ± 13.2 ng·h/mL
half-life [2, 5]: 7.97 ± 0.84 h
MRT last [2, 5]: 8.23 ± 0.25 h
MRT inf [2, 5]: 11.3 ± 1.03 h
Tmax ([2]; Sprague Dawley, 11.41 g/kg/day, JHGs medium dose 11.41 g/kg/d, read-out: Tmax): 4 h
Cmax ([2]; Sprague Dawley, 11.41 g/kg/day, medium dose 11.41 g/kg/d, n=6 (2nd of 3 stacked values)): 4.22 ± 1.27 ng/mL
AUC(0-inf) [2, 6]: 46.1 ± 13.7 ng·h/mL
AUC(0-t) [2, 6]: 42 ± 11.7 ng·h/mL
half-life [2, 6]: 6.82 ± 0.57 h
MRT last [2, 6]: 7.84 ± 0.1 h
MRT inf [2, 6]: 10.1 ± 0.42 h
Tmax ([2]; Sprague Dawley, 22.81 g/kg/day, JHGs high dose 22.81 g/kg/d, read-out: Tmax): 3 h
Cmax ([2]; Sprague Dawley, 22.81 g/kg/day, high dose 22.81 g/kg/d, n=6 (3rd of 3 stacked values)): 5.31 ± 1.61 ng/mL

pharmacokinetic process (versus dosage) [1]: linear pharmacokinetic process
Tmax, PF model group compared with the control group ([1]; PF model vs control rats): slightly increased
reduction of Cmax in PF model group relative to control ([1]; PF model vs control rats): about 1/3
Cmax, PF model group compared with the control group ([1]; PF model vs control rats, medium dose selected for comparison): significantly decreased
AUCs, PF model group compared with the control group ([1]; PF model vs control rats, p < 0.05): significantly decreased
Tmax [1]: ≤ 2 h
pharmacokinetic process (Cmax and AUCs versus dosage) [2]: linear pharmacokinetic process
Structure (SMILES): CC(C)=CCC[C@](C)(O[C@@H]1O[C@H](CO[C@@H]2OC[C@H](O)[C@H](O)[C@H]2O)[C@@H](O)[C@H](O)[C@H]1O)[C@H]1CC[C@]2(C)[C@@H]1[C@H](O)C[C@@H]1[C@@]3(C)CC[C@H](O[C@@H]4O[C@H](CO)[C@@H](O)[C@H](O)[C@H]4O[C@@H]4O[C@H](CO)[C@@H](O)[C@H](O)[C@H]4O)C(C)(C)[C@@H]3CC[C@]12C [Ginsenoside Rb2]
bioavailability, oral administration [3]: low

Structure (SMILES): C[C@@H]1O[C@@H](OC[C@H]2O[C@@H](Oc3c(-c4ccc(O)c(O)c4)oc4cc(O)cc(O)c4c3=O)[C@H](O)[C@@H](O)[C@@H]2O)[C@H](O)[C@H](O)[C@H]1O [Rutin]
pharmacokinetic process (versus dosage) [1]: linear pharmacokinetic process
Tmax [1]: ≤ 2 h
correlation between CL, AUCs (AUC(0–t), AUC (0–∞)), t½, and dose [2]: no correlation
Tmax [2, 7]: ≤ 2 h

shape of plasma concentration–time curve ([1]; PF model group, medium- and high-dose groups, compared to control group): double peaks phenomenon
pharmacokinetic process (Cmax and AUCs versus dosage) [2]: linear pharmacokinetic process
Tmax [2, 7]: ≤ 2 h
Structure (SMILES): CC(C)=CCC[C@](C)(O[C@@H]1O[C@H](CO[C@@H]2O[C@@H](CO)[C@H](O)[C@H]2O)[C@@H](O)[C@H](O)[C@H]1O)[C@H]1CC[C@]2(C)[C@@H]1[C@H](O)C[C@@H]1[C@@]3(C)CC[C@H](O[C@@H]4O[C@H](CO)[C@@H](O)[C@H](O)[C@H]4O[C@@H]4O[C@H](CO)[C@@H](O)[C@H](O)[C@H]4O)C(C)(C)[C@@H]3CC[C@]12C [Ginsenoside Rc]
